These results are taken from US11739101B2, “Bifunctional degraders of hematopoietic progenitor kinase and therapeutic uses thereof” (Nurix Therapeutics, Inc., priority 2020, dated 2023).

One may read the Dmax as the greatest extent of degradation seen. Low readings indicate shallow degradation, high ones deep degradation.

The target in the assay is T1, HPK1 (Homo sapiens, UniProt Q92918).
T1 construct: A HiBiT tag was introduced by CRISPR on the N terminus of HPK1 in Jurkat cells; host or cells: Jurkat (ATCC TIB-152), monoclonal CRISPR HiBiT knock-in line
T1 sequence (Q92918 whole entry): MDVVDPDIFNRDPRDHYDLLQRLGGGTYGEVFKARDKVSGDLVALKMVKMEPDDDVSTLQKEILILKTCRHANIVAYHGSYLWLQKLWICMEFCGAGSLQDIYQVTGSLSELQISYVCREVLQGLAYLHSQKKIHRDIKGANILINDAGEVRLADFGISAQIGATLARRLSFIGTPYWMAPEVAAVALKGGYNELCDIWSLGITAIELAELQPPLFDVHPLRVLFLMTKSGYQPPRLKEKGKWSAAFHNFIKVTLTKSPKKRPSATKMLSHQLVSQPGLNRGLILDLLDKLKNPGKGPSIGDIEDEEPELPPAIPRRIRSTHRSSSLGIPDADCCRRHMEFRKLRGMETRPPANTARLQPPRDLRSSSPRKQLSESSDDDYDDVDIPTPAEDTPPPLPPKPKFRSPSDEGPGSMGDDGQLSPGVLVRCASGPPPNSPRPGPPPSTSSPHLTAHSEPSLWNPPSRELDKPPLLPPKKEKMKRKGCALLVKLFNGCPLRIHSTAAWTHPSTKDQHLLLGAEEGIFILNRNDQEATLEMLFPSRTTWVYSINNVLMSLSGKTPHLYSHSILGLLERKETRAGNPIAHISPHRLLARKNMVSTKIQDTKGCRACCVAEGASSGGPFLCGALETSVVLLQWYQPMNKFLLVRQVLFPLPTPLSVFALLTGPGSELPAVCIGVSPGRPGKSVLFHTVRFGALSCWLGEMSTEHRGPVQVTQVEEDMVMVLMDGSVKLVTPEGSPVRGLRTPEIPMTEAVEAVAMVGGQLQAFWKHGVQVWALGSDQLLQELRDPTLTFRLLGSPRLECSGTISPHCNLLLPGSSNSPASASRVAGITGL
Put plainly: HPK1 Cellular HiBiT Degradation Assay. The format is cell-based. The note with it: HiBiT-tagged HPK1 Jurkat cells, 24 hours, 10 uM to 0.1 nM; Dmax = 100 minus lowest % HPK1 remaining vs DMSO vehicle. The method, then: HiBiT HPK1 Jurkat cell lines were used to evaluate the total protein levels of HPK1 in a robust human cellular high throughput format. The level of HPK1 remaining following treatment with HPK1 CTMs is reported as Dmax (maximum degradation) achieved at 24 hours when compared to vehicle treated controls. […] These decreases were not a result of cytotoxicity measured by a parallel viability assessment (CTG). See also Table 1.
A HiBiT tag was introduced by CRISPR on the N terminus of HPK1 in Jurkat cells (ATCC® TIB-152) to allow quantitation of HPK1 protein levels in a monoclonal human cell line. Cells were plated at 1×10^6 cells/mL, 30 uL/well (3×10^4 cells/well) in complete RPMI 1640 (10% heat inactivated FBS, 1% L-glutamine) in 384-well assay plates (Corning, cat. no. 3570). HPK1 chimeric targeting molecules (CTMs) were added in an 11-point dilution series (3.16-fold) with a final assay concentration range of 10 uM to 0.1 nM. The parental Jurkat cell line, with no HiBiT insertion, was included in the assay as a background control. Cells treated with a DMSO vehicle control were used to determine the maximum signal defining 100% HPK1 in the cell. Cells were incubated for 24 hours at 37° C./5% CO2. Following incubation, 30 uL of complete Nano-Glo HiBiT Lytic Detection Reagent (Promega cat. no. N3040) was added. Cells were incubated for 10 minutes at room temperature and luminescence was read on an EnVision plate reader (Perkin Elmer, 0.1 sec per well). Parallel plates were assessed for viability using Cell Titer Glo (Promega) and read on an EnVision plate reader to ensure results were not the effect of cytotoxicity. Percent HPK1 remaining per sample was calculated as follows: […]
% HPK1 remaining values were plotted as a function of compound concentration and curves were fit using the Prism (GraphPad) equation “log(inhibitor) vs response−Variable slope (four parameters)”. Dmax values were calculated by identifying the lowest % remaining and subtracting from 100. Dmax values are provided in Table 1, wherein A>65%, 45%≤B≤65% and C<45%.
On the technique in general: With HiBiT, luminescence reflects the tagged protein that the partner subunit can reach.
Compound `Cc1cc(F)c(Nc2nc(-c3ccc4c(c3)N([C@H]3C[C@@H](N5CCCCC5)C3)C(=O)C43CCN(C(=O)C4CCN(C(=O)C5CCC(Nc6cccc7c6C(=O)N(C6CCC(=O)NC6=O)C7=O)CC5)C4)CC3)cc3ncn(C(C)C)c23)cc1C(=O)NC(C)C` (stereo partly drawn) [Example 26, 4-fluoro-2-methyl-5-[(6-{2-oxo-1′-[1-[(1R,4R)-4-({2-[2,6-dioxopiperidin-3-yl]-1,3-dioxo-2,3-dihydro-1H-isoindol-4-yl}amino)cyclohexanecarbonyl]pyrrolidine-3-carbonyl]-1-[(1s,3s)-3-(piperidin-1-yl)cyclobutyl]-1,2-dihydrospiro[indole-3,4′-piperidin]-6-yl}-3-(propan-2-yl)-3H-imidazo[4,5-c]pyridin-4-yl)amino]-N-(propan-2-yl)benzamide] gave a Dmax of 45 to 65%.

In turn, `Cc1cc(F)c(Nc2nc(-c3ccc4c(c3)N(C3CC(N5CCCCC5)C3)C(=O)C43CCN(C(=O)CCCCCCCCCNc4ccc5c(c4)C(=O)N(C4CCC(=O)NC4=O)C5=O)CC3)cc3ncn(C(C)C)c23)cc1C(=O)NC(C)C` (stereo not shown) [Example 4, 5-((6-(1′-(10-((2-(2,6-dioxopiperidin-3-yl)-1,3-dioxoisoindolin-5-yl)amino)decanoyl)-2-oxo-1-((1s,3s)-3-(piperidin-1-yl)cyclobutyl)spiro[indoline-3,4′-piperidin]-6-yl)-3-isopropyl-3H-imidazo[4,5-c]pyridin-4-yl)amino)-4-fluoro-N-isopropyl-2-methylbenzamide] returned a Dmax below 45%.

In turn, `Cc1cc(F)c(Nc2nc(-c3ccc4c(c3)N([C@H]3C[C@@H](N5CCCCC5)C3)C(=O)C43CCN(C(=O)CN4CCC5(CC4)CN(c4ccc6c(c4)C(=O)N(C4CCC(=O)NC4=O)C6=O)C5)CC3)cc3ncn(C(C)C)c23)cc1C(=O)NC(C)C` (stereo partly shown) [Example 22, 5-[(6-{1′-[2-(2-{2-[2,6-dioxopiperidin-3-yl]-1,3-dioxo-2,3-dihydro-1H-isoindol-5-yl}-2,7-diazaspiro[3.5]nonan-7-yl)acetyl]-2-oxo-1-[(1s,3s)-3-(piperidin-1-yl)cyclobutyl]-1,2-dihydrospiro[indole-3,4′-piperidin]-6-yl}-3-(propan-2-yl)-3H-imidazo[4,5-c]pyridine-4-yl)amino]-4-fluoro-2-methyl-N-(propan-2-yl)benzamide] came in with a Dmax below 45%.

For the compound `Cc1cc(F)c(Nc2nc(-c3ccc4c(c3)N([C@H]3C[C@@H](N5CCCCC5)C3)C(=O)C43CCN(C(=O)C4CCN(C(=O)N5CCC(Nc6cccc7c6C(=O)N(C6CCC(=O)NC6=O)C7=O)CC5)CC4)CC3)cc3ncn(C(C)C)c23)cc1C(=O)NC(C)C` (stereo partly shown) [Example 68, 5-{[6-(1′-{1-[4-({2-[2,6-dioxopiperidin-3-yl]-1,3-dioxo-2,3-dihydro-1H-isoindol-4-yl}amino)piperidine-1-carbonyl]piperidine-4-carbonyl}-2-oxo-1-[(1s,3s)-3-(piperidin-1-yl)cyclobutyl]-1,2-dihydrospiro[indole-3,4′-piperidin]-6-yl)-3-(propan-2-yl)-3H-imidazo[4,5-c]pyridin-4-yl]amino}-4-fluoro-2-methyl-N-(propan-2-yl)benzamide], the Dmax was in the range of 45 to 65%.

As for `Cc1cc(F)c(Nc2nc(-c3ccc4c(c3)N([C@H]3C[C@@H](N5CCCCC5)C3)C(=O)C43CCN(C(=O)CCOCCOCCOCCOCCNc4cccc5c4C(=O)N(C4CCC(=O)NC4=O)C5=O)CC3)cc3ncn(C(C)C)c23)cc1C(=O)NC(C)C` (stereo partly shown) [Example 2, 5-((6-(1′-(1-((2-(2,6-dioxopiperidin-3-yl)-1,3-dioxoisoindolin-4-yl)amino)-3,6,9,12-tetraoxapentadecan-15-oyl)-2-oxo-1-((1s,3s)-3-(piperidin-1-yl)cyclobutyl)spiro[indoline-3,4′-piperidin]-6-yl)-3-isopropyl-3H-imidazo[4,5-c]pyridin-4-yl)amino)-4-fluoro-N-isopropyl-2-methylbenzamide], the Dmax was in the range of 45 to 65%.

For `Cc1cc(F)c(Nc2nc(-c3ccc4c(c3)N([C@H]3C[C@@H](N5CCCCC5)C3)C(=O)C43CCN(C(=O)c4cccc(C5CCN(c6cccc7c6C(=O)N(C6CCC(=O)NC6=O)C7=O)CC5)c4)CC3)cc3ncn(C(C)C)c23)cc1C(=O)NC(C)C` (stereo partly shown) [Example 53, 5-[(6-{1′-[3-(1-{2-[2,6-dioxopiperidin-3-yl]-1,3-dioxo-2,3-dihydro-1H-isoindol-4-yl}piperidin-4-yl)benzoyl]-2-oxo-1-[(1s,3s)-3-(piperidin-1-yl)cyclobutyl]-1,2-dihydrospiro[indole-3,4′-piperidin]-6-yl}-3-(propan-2-yl)-3H-imidazo[4,5-c]pyridin-4-yl)amino]-4-fluoro-2-methyl-N-(propan-2-yl)benzamide], the “Cellular HPK1 HiBiT: Dmax (%)” value is “B (45%≤B≤65%)”.

Compound `Cc1cc(F)c(Nc2nc(-c3ccc4c(c3)N([C@H]3C[C@@H](N5CCCCC5)C3)C(=O)C43CCN(C(=O)Cc4ccc(N5CCN(CC(=O)N[C@H](C(=O)N6C[C@H](O)C[C@H]6C(=O)N[C@@H](C)c6ccc(-c7scnc7C)cc6)C(C)(C)C)CC5)cc4)CC3)cc3ncn(C(C)C)c23)cc1C(=O)NC(C)C` [Example 47, (2S,4R)-1-[(2S)-2-(2-{4-[4-(2-{6-[4-({2-fluoro-4-methyl-5-[(propan-2-yl)carbamoyl]phenyl}amino)-3-(propan-2-yl)-3H-imidazo[4,5-c]pyridin-6-yl]-2-oxo-1-[(1s,3s)-3-(piperidin-1-yl)cyclobutyl]-1,2-dihydrospiro[indole-3,4′-piperidin]-1′-yl}-2-oxoethyl)phenyl]piperazin-1-yl}acetamido)-3,3-dimethylbutanoyl]-4-hydroxy-N-[(1S)-1-[4-(4-methyl-1,3-thiazol-5-yl)phenyl]ethyl]pyrrolidine-2-carboxamide] yielded a Dmax above 65%.

The compound `Cc1cc(F)c(Nc2nc(-c3ccc4c(c3)N([C@H]3C[C@@H](N5CCCCC5)C3)C(=O)C43CCN(C(=O)CN4CCC(c5ccc(C(=O)NCCNc6cccc7c6C(=O)N(C6CCC(=O)NC6=O)C7=O)cc5)CC4)CC3)cc3ncn(C(C)C)c23)cc1C(=O)NC(C)C` (stereo partly shown) [Example 90, 5-[(6-{1′-[2-(4-{4-[(2-{[2-(2,6-dioxopiperidin-3-yl)-1,3-dioxoisoindol-4-yl]amino}ethyl)carbamoyl]phenyl}piperidin-1-yl)acetyl]-2-oxo-1-[(1s,3s)-3-(piperidin-1-yl)cyclobutyl]spiro[indole-3,4′-piperidin]-6-yl}-3-isopropylimidazo[4,5-c]pyridin-4-yl)amino]-4-fluoro-N-isopropyl-2-methylbenzamide] returned a Dmax of 45 to 65%.

The compound `Cc1cc(F)c(Nc2nc(-c3ccc4c(c3)N([C@H]3C[C@@H](N5CCCCC5)C3)C(=O)C43CCN(C(=O)c4ccc(C(=O)N5CCC(Cc6cccc7c6C(=O)N(C6CCC(=O)NC6=O)C7=O)CC5)cc4)CC3)cc3ncn(C(C)C)c23)cc1C(=O)NC(C)C` (stereo partly shown) [Example 77, 5-{[6-(1′-{4-[4-({2-[2,6-dioxopiperidin-3-yl]-1,3-dioxo-2,3-dihydro-1H-isoindol-4-yl}methyl)piperidine-1-carbonyl]benzoyl}-2-oxo-1-[(1s,3s)-3-(piperidin-1-yl)cyclobutyl]-1,2-dihydrospiro[indole-3,4′-piperidin]-6-yl)-3-(propan-2-yl)-3H-imidazo[4,5-c]pyridin-4-yl]amino}-4-fluoro-2-methyl-N-(propan-2-yl)benzamide] displayed a Dmax of 45 to 65%.

Compound `Cc1cc(F)c(Nc2nc(-c3ccc4c(c3)N([C@H]3C[C@@H](N5CCCCC5)C3)C(=O)C43CCN(C(=O)[C@@H]4CCN(C(=O)[C@H]5CC[C@H](N(C)c6cccc7c6C(=O)N(C6CCC(=O)NC6=O)C7=O)CC5)C4)CC3)cc3ncn(C(C)C)c23)cc1C(=O)NC(C)C` (stereo partly drawn) [Example 67, 4-fluoro-2-methyl-5-[(6-{2-oxo-1′-[(3R)-1-[(R,4R)-4-({2-[2,6-dioxopiperidin-3-yl]-1,3-dioxo-2,3-dihydro-1H-isoindol-4-yl}(Methyl)amino)cyclohexanecarbonyl]pyrrolidine-3-carbonyl]-1-[(1s,3s)-3-(piperidin-1-yl)cyclobutyl]-1,2-dihydrospiro[indole-3,4′-piperidin]-6-yl}-3-(propan-2-yl)-3H-imidazo[4,5-c]pyridin-4-yl)amino]-N-(propan-2-yl)benzamide] gave a Dmax above 65%.
